Here are results for six compounds from paper PMC4549708, “Inhibition of neuraminidase by Ganoderma triterpenoids and implications for neuraminidase inhibitor design” (Scientific Reports, 2015).

Like-named read-outs stand apart in the source and are kept apart here.

The subject of data set [1] is MDCK cells (Madin-Darby Canine Kidney cells).
The next data set deals with Influenza B (B/Lee/40). In words: microbe, parasite or virus in culture. Format: cell-based.
Data set [2] addresses T1, NA (H5N1) (Influenza A virus, UniProt K0C216). In kind it is biochemical, Influenza A virus A/Hubei/1/2011(H5N1).
The target of data set [3] is T1, NA (H5N1). The data set is described as follows: biochemical. Particulars: for Inhibition rate (%) NA (H5N1): 200 µM.
The target of another data set is NA (H1N1,09) (Influenza A virus, UniProt C3W5S3). The data set is described as follows: biochemical. The conditions noted are these: for Inhibition rate (%) NA(H1N1,09): 200 μM of each compound, n = 3, means ± standard deviation.
For a further data set, the system named is NA (H7N9). In kind it is biochemical. The conditions noted are these: 200 µM.
Data set [4] has as its system influenza A H1N1 (A/WSN/33). Particulars: cellular assay; cited from earlier work.
A short description of data set [5]: in vitro. The conditions noted are these: dog.
Data set [6] in a line: in vitro. The conditions noted are these: human.
Data set [7] has as its system H5N2 (A/Duck/Pennsylvania/84). The data set is described as follows: microbe, parasite or virus in culture. In kind it is cell-based. The conditions noted are these: unidentified influenza virus, H5N2, MDCK.

The compound `CC(=O)O[C@H]1C[C@H]([C@H](C)CC/C=C(\C)C(=O)O)[C@@]2(C)CC=C3C(=CC[C@H]4C(C)(C)C(=O)CC[C@]34C)[C@]12C` [Compound 1, Ganoderic acid T-Q] gave a CC50 in the data set with MCF7 cells of 28.2 ± 0.8 µM. Moreover, the CC50 in data set [1] was 41.1 µM. The IC50 (as a rule, the concentration needed to halve the response being measured) in the data set with Influenza B (B/Lee/40) (read-out: IC50) was found to be 190 µM. Besides, on NA (H5N1) [2], the “Kiu (ESI dissociation constant)” value worked out at 17.39, the “higher affinity to free NA than to the NA-substrate complex” value was 2.5 fold and the mode of inhibition result is “mixed inhibition mode”. In addition, on NA (H5N1) [3], 1.2 ± 1 µM corresponded to half-maximal inhibition (IC50) and the “Inhibition rate (%) NA (H5N1)” value worked out at 94.4 ± 0.4%. In addition, the “Inhibition rate (%) NA(H1N1,09)” value on NA (H1N1,09) is reported as 81.7 ± 1.7%. For the same compound, at NA (H1N1,09) (in vitro NA inhibition assay (n = 3)), the IC50 is 5.6 ± 1.9 µM. Moreover, the “Inhibition rate (%) NA(H7N9)” value with NA (H7N9) is recorded as 27.4 ± 1.2%.
`CC(=CCC[C@@H](C)[C@H]1CC[C@@]2(C)C3=CC[C@H]4C(C)(C)[C@@H](O)CC[C@]4(C)C3=CC[C@]12C)CO` [ganodermadiol]: the half-inhibitory concentration (IC50) in data set [4] was over 220 µM.
In the case of `C/C(=C\CC[C@@H](C)[C@H]1CC[C@@]2(C)C3=C(CC[C@]12C)[C@@]1(C)CC[C@H](O)C(C)(C)[C@@H]1CC3=O)CO` [lucidadiol], the IC50 in data set [4] is 220 µM.
With `C/C(=C\CC[C@@H](C)[C@H]1C[C@H](O)[C@@]2(C)C3=CC[C@H]4C(C)(C)C(=O)CC[C@]4(C)C3=CC[C@]12C)C(=O)O` [Compound 2, Ganoderic acid TR], the values for the CC50 in the data set “in vitro [5]” and in the data set “in vitro [6]” were 299 µM and 91.6 ± 3.4 µM, respectively. Moreover, the IC50 was found to be 324 µM in [7] and 166 µM in the data set with Influenza B (B/Lee/40) (Influenza B virus, MDCK). Also, the inhibition (in general, the percentage by which the read-out fell short of the control) at 200 µM at NA (H5N1) [3] (read-out: Inhibition rate (%) NA (H5N1)) was 96.5 ± 0.3%. For the same compound, the “Inhibition rate (%) NA(H7N9)” value in the data set on NA (H7N9) worked out at 24.0 ± 1.8%.
For Ganoderenic acid D [Compound 17], the CC50 in the data set on MCF7 cells was over 200 µM. On NA (H5N1) [3], the IC50 stood at 123 ± 22.5 µM and the “Inhibition rate (%) NA (H5N1)” value is reported as 74.2 ± 2.2%. At NA (H1N1,09), the “Inhibition rate (%) NA(H1N1,09)” value is reported as 50.4 ± 3.0%. Also, the “Inhibition rate (%) NA(H7N9)” value in the data set with NA (H7N9) came to 35.9 ± 2.8%.
Take `CC(CC(=O)C[C@@](C)(O)C1=C[C@H](O)[C@]2(C)[C@]1(C)C(=O)C=C1[C@@]3(C)CCC(=O)C(C)(C)[C@@H]3C[C@H]3O[C@@]132)C(=O)O` (stereo partly shown) [applanoxidic acid G]: in [4], the IC50 was 190 µM.
